One data set concerns HS19.10. The following applies: 2.0 mM L-glutamate, 250 μM PLP, 50 mM HEPES/K+, pH 8.0, 25 °C; DHAP varied.
Data set [1] relates to N[C@@H](COP(=O)(O)O)C(=O)O. As to the kind of experiment: purified protein. The following applies: 100 mM HEPES/K+, pH 8.0, 25 °C, 250 μM PLP.

Data on two molecules can be found in publication PMC8524856 (Biochemistry, 2021).

Consider `O=C(CO)COP(=O)(O)O` [DHAP], for which the Km in the data set with HS19.10 is 41 ± 2 µM.

Turning to “Cj1436 (Campylobacter jejuni subsp. jejuni NCTC 11168 = ATCC 700819)”, in data set [1], the kcat was determined as 0.21 ± 0.02 s⁻¹.

Broadly, the Km is the concentration of substrate that gives half-maximal velocity. Usually kcat stands for the number of substrate molecules converted per active site and unit of time at saturation.
